We go through one substance from PMC5843817, “Preclinical validations of [^18F]FPyPEGCBT-c(RGDfK): a ^18F-labelled RGD peptide prepared by ligation of 2-cyanobenzothiazole and 1,2-aminothiol to image angiogenesis” (EJNMMI Radiopharmacy and Chemistry, 2016).

In general, IC50 refers to the point on the concentration scale where inhibition reaches its midpoint. A low value points to greater potency in that assay.

Assay [1] has as its system αVβ3, αVβ5 and α5β1 integrins on SKOV-3 cancer cells. Description: [^125I]echistatin displacement cell binding assay, SKOV-3. Set-up: species or system human. Particulars: SKOV-3 cells; displacement of [^125I]echistatin; 1 h, 37 °C. As for the experimental part: (§1) In vitro integrin-binding of FPyPEGCBT-c(RGDfK) was evaluated using a standard displacement assay of [^125I]echistatin. U-87 MG and SKOV-3 cells were seeded in 96-well plates 24 h prior to the experiment (U-87 MG, 6 × 10^4 cells per well; SKOV-3, 3 × 10^4 cells per well). On the day of the experiment, the cells were washed twice with binding buffer (20 mM Tris pH 7.4, 150 mM NaCl, 2 mM CaCl2, 1 mM MgCl2, 1 mM MnCl2, 0.1 % BSA), then co-incubated for 1 h at 37 °C in binding buffer with 370 Bq/well [^125I]echistatin (Perkin Elmer, Schwerzenbach, Switzerland) and a concentration range (10^−9 to 10^−4 M) of FPyPEGCBT-c(RGDfK) or c(RGDfV) (PeptaNova, Sandhausen, Germany) as a reference peptide. Cells were then washed three times with binding buffer and lysed in 1 M NaOH. The cell-associated radioactivity was measured in a Wizard^2 2470 γ-counter (Perkin Elmer). The IC50 (Inhibitory Concentration of 50 %) values were calculated by fitting the data by nonlinear regression using GraphPad Prism (GraphPad software, La Jolla, CA, USA).
(§2) Fig. 2 Displacement of [^125I]echistatin by FPyPEGCBT-c(RGDfK). U-87 MG and SKOV-3 cancer cells were co-incubated for 1 h in 96-well plates with 370 Bq/well [^125I]echistatin and a concentration range (10^−9 to 10^−4 M) of FPyPEGCBT-c(RGDfK) or c(RGDfV). After lysis, the cell-associated radioactivity was measured in a γ-counter. […]

Assay [2] deals with αVβ3, αVβ5 and α5β1 integrins on U-87 MG cancer cells. Kind of assay: [^125I]echistatin displacement cell binding assay, U-87 MG. Also on record: species or system human. To be noted: U-87 MG cells; displacement of [^125I]echistatin; 1 h, 37 °C. As for the experimental part:
as §1, §2

Take c(RGDfV): the half-maximal inhibitory concentration (IC50) in assay [1] was found to be 259 ± 2 nM; in assay [2], 600 nM.
